# In article PMC10895676, “Antiviral Activity of Lipophilic Nucleoside Tetraphosphate Compounds” (Journal of Medicinal Chemistry, 2024):
# “And” between values parts separate entries of the source, which are not always exact repeats. Equal entries are not always repeated. Where two headings read alike, the source gives them in different places.
# How the values were obtained:
# [1] = cited from earlier work
# [2] = Chemical hydrolysis in aqueous buffers (PBS pH 7.3 / 8.0, citrate buffer pH 2.0), RP18-HPLC; type: physicochemical; conditions: phosphate buffered saline; 25 mM PBS, pH 7.3, 37 °C; read-out: PBS pH 7.3 t1/2 (converted)
# Protocol: All metabolite mixtures were analyzed and quantified by means of analytical RP18-HPLC (UV detection).
# The solution was incubated at 37 °C in a thermomixer. […] for each extraction and stored at −30 °C. When testing, samples were warmed up to room temperature, and 25 or 20 μL of the liquid was taken and injected into the analytical RP-18-HPLC instrument. Further aliquots were taken for monitoring the kinetic hydrolysis.
# 5.88 g of citric acid and 3.58 g of NaCl were dissolved in 82 mL of hydrochloric acid (0.1 mol/L). Then, sodium hydroxide was added to adjust the pH to 2.0.
# HIV-1 (HE) = test: Anti-HIV replication assay, HIV-1 (HE) in wild-type CEM/0 cells; type: cell-based; conditions: for EC50: Human immunodeficiency virus 1, CCRF-CEM, wild-type CEM/0 cells, mean ± SD, n = 2–3, read-out: HIV-1 (HE) EC50
# Protocol: (§1) Inhibition of HIV-1(HE)- and HIV-2(ROD)-induced cytopathogenicity in wild-type CEM/0 CEM CD4^+ T-cells and thymidine kinase-deficient CEM/TK^– cell cultures was measured in microtiter 96-well plates containing ∼3 × 10^5 CEM cells/mL infected with 100 CCID50 of HIV per milliliter and containing appropriate dilutions of the test compounds. After 4–5 days of incubation at 37 °C in a CO2-controlled humidified atmosphere, virus-induced cellular effects and syncytia cell formation were examined microscopically. The EC50 (50% effective concentration) was defined as the compound concentration required to inhibit HIV-induced giant cell formation by 50%.
# HIV-2 (ROD) [3] = test: Anti-HIV replication assay, HIV-2 (ROD) in wild-type CEM/0 cells; type: cell-based; conditions: for selectivity index (SI): CC50/EC50, HIV-2 (ROD) in CEM cells; for EC50: Human immunodeficiency virus 2, CCRF-CEM, read-out: HIV-2 (ROD) EC50
# Protocol: as §1, with “microscopically.” for “microscopically. The EC50 (50% effective concentration) was defined as the compound concentration required to inhibit HIV-induced giant cell formation by 50%.”
# HIV-2 (ROD) [4] = test: Anti-HIV replication assay, HIV-2 (ROD) in thymidine kinase-deficient CEM/TK– cells; type: cell-based; conditions: for selectivity index (SI): CC50/EC50, HIV-2 (ROD) in CEM/TK– cells; for EC50: Human immunodeficiency virus 2, CEM/TK– cells, mean ± SD, n = 2–3, read-out: CEM/TK– HIV-2 (ROD) EC50
# Protocol: as §1, with “microscopically.” for “microscopically. The EC50 (50% effective concentration) was defined as the compound concentration required to inhibit HIV-induced giant cell formation by 50%.”
# [5] = Cytotoxicity, inhibition of CEM cell proliferation; type: cell-based; conditions: human, CEM cells (CD4+ T-cells), read-out: toxicity CC50
# [6] = Cytotoxicity, inhibition of CEM/TK– cell proliferation; type: cell-based; conditions: human, CEM/TK– cells (CD4+ T-cells), read-out: toxicity CC50
# [7] = Hydrolysis in CEM/0 cell extracts; type: in vitro ADME; conditions: human, 37 °C, read-out: CEM/0 cell extracts t1/2 (converted)
# Protocol: Next, TetraPPPPro-nucleotides 4–9 were incubated in human CD4^+ T-lymphocyte CEM/0 cell extracts to study their stability and identify the hydrolysis products.
# CEM cells were grown in RPMI-1640-based cell culture medium to a final density of ∼3 × 10^6 cells/mL. Cells were centrifuged for 10 min at 1250 rpm at 4 °C and washed twice with cold PBS, and the pellet was resuspended at 10^8 cells/mL and sonicated (Hielscher Ultrasound Techn., 100% amplitude, 3·times for 10 s) to destroy cell integrity. Next, the resulting cell suspension was centrifuged at 10,000 rpm to remove cell debris. Finally, the supernatant was divided into aliquots and frozen at −80 °C.
# 6.0 mM hydrolysis solutions of compounds 4–9 were prepared from 21 μL of 50 mM DMSO stock solutions and 154 μL of DMSO. Two different samples, including 10 μL of water and 10 μL of 6.0 mM hydrolysis solution, were prepared in 2 mL Eppendorf vials. Next, 50 μL of human CEM cell extracts or 50 μL of human citrate plasma were added to the mixture, the reaction was started, and the mixture was incubated at 37 °C for different time periods. The reactions were stopped by the addition of 150 μL of MeOH. The resulting suspension was kept on ice for 5 min, followed by defrosting and centrifugation at 14,000 rpm (Heraeus, Biofuge Pico) for 22 min. The supernatants (80 or 60 μL) were directly injected into HPLC. The calculation of t1/2 was performed analogously to that for the chemical hydrolysis studies.
# pig liver esterase (PLE) = test: Enzymatic hydrolysis with pig liver esterase (PLE); type: in vitro ADME; conditions: pig liver esterase in phosphate buffer, PLE in phosphate buffer pH 7.3, 37 °C, read-out: PLE t1/2 (converted)
# Protocol: To confirm the enzymatic hydrolysis process, TetraPPPPro-nucleotides 4–9 bearing different kinds of lipophilic groups attached to the δ-phosph(on)ate group were incubated with PLE in phosphate buffer.
# Then, 833 μL of 50 mM phosphate buffer (pH 7.3) and 125 μL of DMSO were added to the 6.0 mM hydrolysis solutions. The reaction was started by addition of 62.5 μL of PLE in phosphate buffer (100 units/mL), and the mixture was incubated at 800 rpm at 37 °C in a thermomixer. (1). At different times, aliquots (75 μL) were taken and stopped by the addition of […] of MeOH. The mixture was stored in liquid nitrogen. When testing, samples were warmed up to room temperature, and 60 μL of the liquid was directly injected into HPLC analysis. (2). 40 μL for each extraction was stored in liquid nitrogen. When testing, samples were warmed up to room temperature, and 30 μL of the liquid was taken and injected into the analytical RP-18-HPLC instrument. The calculation of t1/2 was performed analogously to that for the chemical hydrolysis studies.
# [8] = wild-type CEM/0 cells, mean ± SD, n = 2–3
Compound,PBS pH 7.3 t1/2 ([1]; PBS),half-life at 1.9 mM [2],EC50 (HIV-1 (HE)),selectivity index (SI) (HIV-2 (ROD) [3]),EC50 (HIV-2 (ROD) [3]; [8]),selectivity index (SI) (HIV-2 (ROD) [4]),"improvement of antiviral activity as compared to the parent d4T (HIV-2 (ROD) [4]; HIV-2, CEM/TK– cells)",EC50 (HIV-2 (ROD) [4]),CC50 [5],CC50 [6],half-life at 0.86 mM [7],half-life at 0.45 mM (pig liver esterase (PLE)),"increase in antiviral potency as compared to d4T (HIV-1 (HE); HIV-1, CEM/0 cells)","increase in antiviral potency as compared to d4T (HIV-2 (ROD) [3]; HIV-2, CEM/0 cells)",EC50 (HIV-2 (ROD) [3]),PBS pH 7.3 t1/2 ([1]; buffer)
"CCCCCCCCCCCCCCCCCCOP(=O)(OCc1ccc(OC(=O)CCCC)cc1)OP(=O)(O)OP(=O)(O)OC[C@@H]1C=C[C@H](n2cc(C)c(=O)[nH]c2=O)O1 (stereo partly drawn) [2a, γ-(AB-C4; C18)-d4TTP]",237 h,–,–,–,–,–,–,–,–,–,–,–,–,–,–,–
"CCCCCCCCCCCCOP(=O)(OCCCCCCCCCCCC)OP(=O)(O)OP(=O)(O)OP(=O)(O)OC[C@@H]1C=C[C@H](n2cc(C)c(=O)[nH]c2=O)O1 [4b, δ-(Alkyl-C12; alkyl-C12)-d4T4P]",–,215 h,170 ± 100 nM,405,110 ± 50 nM,2927,> 1700 fold,29 ± 37 nM,44600 nM,84900 nM,–,–,–,–,–,–
"CCCCCCCCCCCCCCCCCCOP(=O)(OCCCCCCCCCCCCCCCCCC)OP(=O)(O)OP(=O)(O)OP(=O)(O)OC[C@@H]1C=C[C@H](n2cc(C)c(=O)[nH]c2=O)O1 [4c, δ-(Alkyl-C18; alkyl-C18)-d4T4P]",–,–,1990 ± 900 nM,24,2090 ± 580 nM,13,–,6180 ± 1000 nM,50000 nM,84100 nM,–,–,–,–,–,–
"CCCCCCCCCCCCCCCCCCOP(=O)(OCC(CC)CCCC)OP(=O)(O)OP(=O)(O)OP(=O)(O)OC[C@@H]1C=C[C@H](n2cc(C)c(=O)[nH]c2=O)O1 (stereo partly drawn) [4e, δ-(Alkyl-C8; alkyl-C18)-d4T4P]",–,325 h,440 ± 170 nM,139,320 ± 90 nM,114,–,430 ± 210 nM,44700 nM,48900 nM,–,–,–,–,–,–
"CCCCCCCCCCCCCCCCCCP(=O)(OCC(CC)CCCC)OP(=O)(O)OP(=O)(O)OP(=O)(O)OC[C@@H]1C=C[C@H](n2cc(C)c(=O)[nH]c2=O)O1 (stereo partly drawn) [5b, δ-(Alkyl-C8)-δ-C-(alkyl-C18)-d4T4P]",–,> 1000 h,1440 ± 700 nM,>77,1300 ± 640 nM,312,–,160 ± 130 nM,> 100000 nM,50000 nM,–,–,–,–,–,–
"CCCCCCCCCCCCCCCCCCP(=O)(OCc1ccc(OC(=O)CCCC)cc1)OP(=O)(O)OP(=O)(O)OP(=O)(O)OC[C@@H]1C=C[C@H](n2cc(C)c(=O)[nH]c2=O)O1 (stereo partly drawn) [compound 7, δ-(AB-C4)-δ-C-(alkyl-C18)-d4T4P]",–,> 600 h,9.2 ± 8.2 nM,4330,9.1 ± 7.7 nM,5700 and 5677,–,6.5 ± 5.7 nM,39400 nM,36900 nM,> 8 h,0.5 h,36 fold,107 fold,–,–
"CCCCCCCCCCCCCCCCOC(=O)Oc1ccc(COP(=O)(OCc2ccc(OC(=O)CCCC)cc2)OP(=O)(O)OP(=O)(O)OP(=O)(O)OC[C@@H]2C=C[C@H](n3cc(C)c(=O)[nH]c3=O)O2)cc1 (stereo partly drawn) [compound 9, δ-(AB-C4; ACB-C16)-d4T4P]",–,25 h,170 ± 50 nM,365,210 ± 110 nM,5,–,9710 ± 4780 nM,76800 nM,50000 nM,2.58 h,1.03 h,–,–,–,–
"Cc1cn([C@H]2C=C[C@@H](CO)O2)c(=O)[nH]c1=O [d4T, 3′-deoxy-2′,3′-didehydrothymidine, reference compound]",–,–,330 ± 130 nM,–,–,–,–,> 50000 nM,> 50000 nM,> 50000 nM,–,–,–,–,970 ± 500 nM,–
β-(AB-C4)-β-C-(C18)-d4TDP [33b],–,–,–,–,–,–,–,–,–,–,–,–,–,–,–,> 1000 h
β-(AB-C4; C18)-d4TDP [33a],–,–,–,–,–,–,–,–,–,–,–,–,–,–,–,406 h
β-(alkyl-C4)-β-C-(alkyl-C18)-d4TDP,–,–,–,–,–,–,–,–,–,–,–,–,–,–,–,> 3000 h
